From patent publication US9598419B1, “Imidazotriazine and imidazodiazine compounds” (Universite de Montreal, priority 2014, dated 2017)
pEC50: −log10 of the molar value.

Columns and labels:
[1] = biological target: T1, PAR4 (Homo sapiens, UniProt Q96RI0); experiment: washed platelet aggregation assay (PAR4 agonist peptides); format: cell-based; details: washed platelets
T1 construct: PRP was isolated by centrifugation at 170 g for 14 minutes and platelets were further pelleted; from tissue; host or cells: human washed platelets
T1 sequence (Q96RI0 18-385): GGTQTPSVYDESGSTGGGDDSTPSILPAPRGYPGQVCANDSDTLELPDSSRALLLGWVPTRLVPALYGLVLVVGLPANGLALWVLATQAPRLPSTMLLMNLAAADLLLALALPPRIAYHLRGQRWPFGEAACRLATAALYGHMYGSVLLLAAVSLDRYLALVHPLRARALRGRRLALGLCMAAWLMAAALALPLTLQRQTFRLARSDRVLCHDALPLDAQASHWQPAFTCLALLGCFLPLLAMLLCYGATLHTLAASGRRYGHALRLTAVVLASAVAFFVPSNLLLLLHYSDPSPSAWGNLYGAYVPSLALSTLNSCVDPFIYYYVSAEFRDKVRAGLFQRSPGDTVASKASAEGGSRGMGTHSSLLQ
Description: Human blood was collected in ACD (85 mM tri-sodium citrate, 78 mM citric acid, 110 mM D-glucose, pH 4.4) at a ratio of 1.4 ml per 10 ml blood. PRP was isolated by centrifugation at 170 g for 14 minutes and platelets were further pelleted by centrifugation at 1300 g for 6 minutes. Platelets were washed once with 10 ml ACD containing 1 mg/ml bovine serum albumin Platelets were resuspended at ˜2.5×10^8/ml in Tyrode's Buffer (137 mM NaCl, 2 mM KCl, 1.0 mM MgCl2, 1 mM CaCl2, 5 mM glucose, 20 mM HEPES pH 7.4).

[2] = biological target: T2, protease-activated receptor type 4 (PAR4) (Homo sapiens, UniProt Q96RI0); details: quoted from the abstract; cited from earlier work
T2 sequence (Q96RI0 18-385): T1 sequence (Q96RI0 18-385)

[3] = biological target: T3, PAR1 (Homo sapiens, UniProt P25116); details: ACS patients, phase III; cited from earlier work
T3 construct: host or cells: ACS patients (clinical trial)
T3 sequence (P25116 22-425): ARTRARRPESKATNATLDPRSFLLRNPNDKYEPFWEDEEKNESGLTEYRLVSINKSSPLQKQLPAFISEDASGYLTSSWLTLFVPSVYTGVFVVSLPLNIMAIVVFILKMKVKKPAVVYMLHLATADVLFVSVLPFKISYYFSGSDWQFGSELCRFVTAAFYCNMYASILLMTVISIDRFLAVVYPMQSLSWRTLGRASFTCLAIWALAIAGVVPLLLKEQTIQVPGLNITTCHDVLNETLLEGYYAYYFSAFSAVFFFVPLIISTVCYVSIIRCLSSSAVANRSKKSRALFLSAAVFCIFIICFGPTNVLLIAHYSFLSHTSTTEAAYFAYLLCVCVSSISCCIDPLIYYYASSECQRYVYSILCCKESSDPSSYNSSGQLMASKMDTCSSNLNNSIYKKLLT

C[C@H](N)C(=O)N[C@@H](Cc1ccc(O)cc1)C(=O)N1CCC[C@H]1C(=O)NCC(=O)N[C@@H](CCCCN)C(=O)N[C@@H](Cc1ccccc1)C(=O)O [AYPGKF]
pEC50 [1]: 4.92

CCOC(=O)c1ccc(-c2nn(Cc3ccccc3)c3ccccc23)cc1 [ethyl 4-(1-benzyl-1H-indazol-3-yl)benzoate]
inhibition of PAR4-dependent platelet activation [2]: selective and potent inhibitor

CCOC(=O)N[C@@H]1CC[C@@H]2[C@@H](C1)C[C@H]1C(=O)O[C@H](C)[C@H]1[C@H]2/C=C/c1ccc(-c2cccc(F)c2)cn1 [vorapaxar]
cardiovascular events [3]: did not significantly reduce | risk of major bleeding [3]: significantly increased
